{"source": "paper PMC8772772", "about": "“Enantioselective Synthesis and Pharmacological Evaluation of Aza-CGP37157–Lipoic Acid Hybrids for the Treatment of Alzheimer’s Disease” (Antioxidants, 2022)", "key": {"NRF2": {"test_system": "NRF2", "assay": "NRF2 nuclear localization, immunocytochemistry in AREc32 cells", "assay_type": "cell-based", "settings": "30 μM, 2 h, vs basal", "protocol": "AREc32 cells were plated in 24 multi-well plates on poly-D-Lysine-coated crystal slides (4 × 10^4 cells/well). Cells were treated with compounds 7a or 7b (30 µM) for 2 h and fixed by treatment with 4% paraformaldehyde solution in PBS (10 min). After 3 washings with PBS every 5 min, cells were permeabilized with 0.1% Triton X-100 solution for five min, washed 3 times with PBS (5 min) and incubated overnight with primary antibody anti-NRF2 (1:50, A-10, sc-365949, Santa Cruz Biotechnology, Dallas, TX, USA). Thereafter, cells were washed with PBS (3×, 5 min) and incubated with secondary antibody (1:500, 1 h). Finally, nuclei were stained with 5 µg/mL PBS solution of Hoechst 33342 (Invitrogen, Madrid, Spain) during the second wash. Finally, slides were mounted on coverslips (glycerol–PBS (1:1 v/v)), and images were obtained in a confocal microscope (TCS SPE, Leica, Wetzlar, Germany).\nTo obtain deeper insight into the mechanism of action of compounds 7, we evaluated their potential capacity to induce NRF2 nuclear localization and the activation of the phase II response. As previously described, NRF2 is sequestered at the cytoplasm by its repressor protein KEAP1, which mediates its proteasomal degradation. […] Thus, we firstly evaluated the capacity of compounds 7a and 7b to induce NRF2 nuclear localization as part of their mechanism of action. […]"}, "HO-1 and GCLc": {"test_system": "HO-1 and GCLc", "assay": "Western blot of NRF2-dependent proteins HO-1 and GCLc in AREc32 cells", "assay_type": "cell-based", "settings": "30 μM, 24 h, western blot vs basal", "protocol": "AREc32 cells were seeded in 6 multi-well plates (1 × 10^6 cells/well) for 24 h and treated with compounds 7a and 7b (30 µM) and culture medium (basal) for 24 h. Thereafter, cells were collected and lysed in ice-cold lysis buffer (10% glycerol, 137 mM NaCl, 1% Nonidet P-40, 20 mM Tris HCl pH 7.5, 1 mM phenylmethylsulfonyl fluoride, 20 mM NaF, 1 mM sodium pyrophosphate, 1 μg/mL leupeptin and 1 mM Na3VO4). Then proteins (30 μg) were resolved by gel electrophoresis on sodium dodecyl sulfate–polyacrylamide (10% and 12%) and transferred to Immobilion-P membranes (MilliporeSigma, Madrid, Spain). The membranes were incubated with anti-GCLc (1:1000, Ab41463 (Abcam, Cambridge, MA, USA), anti-HO-1 (1:1000, ab68477, Abcam) or anti-Actin (1:100,000, A3854, Merck, Madrid, Spain). Peroxidase-conjugated secondary antibodies (1:10,000 and antirabbit: SC-2357, Santa Cruz Biotechnology, Dallas, TX, USA) were employed to detect the proteins by enhanced chemiluminescence. Band intensities corresponding to immunoblot detection of protein samples were quantitated with Fiji software.\nOnce in the nucleus, NRF2 binds to small MafG protein, and the resulting complex binds to the ARE sequences at the DNA to initiate the expression of phase II antioxidant proteins. HO-1 and GCLc are two prominent examples of antioxidant enzymes regulated by the NRF2-ARE pathway related to the heme group processing and the synthesis of glutathione, the major antioxidant defense inside the cells. […] Thereafter, protein expression was evaluated."}}, "data": [{"compound": "O=C1CN(CCOC(=O)CCCC[C@H]2CCSS2)[C@@H](c2ccccc2Cl)c2cc(Cl)ccc2N1", "note": "[(S,R)-7b, 2-((R)-7-Chloro-5-(2-chlorophenyl)-2-oxo-1,2,3,5-tetrahydro-4H-benzo[e][1,4]diazepin-4-yl)ethyl 5-((S)-1,2-dithiolan-3-yl)pentanoate]", "values": [{"measurement": "NRF2 nuclear localization", "setting": "NRF2", "result": "predominantly nuclear localization of NRF2"}, {"measurement": "GCLc expression", "setting": "HO-1 and GCLc", "result": "significantly increased"}, {"measurement": "HO-1 expression", "setting": "HO-1 and GCLc", "result": "significantly increased"}]}, {"compound": "O=C1CN(CCOC(=O)CCCC[C@H]2CCSS2)[C@H](c2ccccc2Cl)c2cc(Cl)ccc2N1", "note": "[(S,S)-7a, 2-((S)-7-Chloro-5-(2-chlorophenyl)-2-oxo-1,2,3,5-tetrahydro-4H-benzo[e][1,4]diazepin-4-yl)ethyl 5-((S)-1,2-dithiolan-3-yl)pentanoate]", "values": [{"measurement": "NRF2 nuclear localization", "setting": "NRF2", "result": "predominantly nuclear localization of NRF2"}, {"measurement": "GCLc expression", "setting": "HO-1 and GCLc", "result": "significantly increased"}, {"measurement": "HO-1 expression", "setting": "HO-1 and GCLc", "result": "significantly increased"}]}]}
